Among the data in PubChem BioAssay (NCI) are GI50 and TGI values, retold here.

Holding throughout (test): inhibition of tumour cell growth, NCI panel, 48 h
Assay [1] relates to IGROV1 ovarian.
The test system of assay [2] is CCRF-CEM leukemia.
Assay [3] concerns NCI-H23 lung.
For assay [4], the system named is MALME-3M melanoma.
Assay [5] relates to SNB-19 CNS.
The test system of assay [6] is TK-10 renal.
Assay [7] has as its system NCI/ADR-RES ovarian.
The subject of assay [8] is U251 CNS.
Assay [9] concerns SK-MEL-28 melanoma.
Assay [10] has as its system A498 renal.

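Following 48 hours of exposure in 96-well plates, responses at five concentrations were used to interpolate endpoints linearly. GI50: concentration for 50% inhibition of growth. At the TGI there is no net growth.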

Regarding `Clc1ccc(OCc2nnc3n2N=C(c2ccc(Cl)cc2Cl)CS3)cc1`, the GI50 in assay [1] was 19.8 µM; in assay [2], 21.1 µM; in [3] it was 17.1 µM; in assay [4] it was 19.8 µM; in [5] it was 28.5 µM; in [6] it was 15.9 µM. The results for the GI50 in assay [7], in assay [8] and in [9] were 16.2 µM, 19.5 µM and 20.6 µM, respectively. Further, the TGI in assay [1] was 50.8 µM; in assay [2], 68.1 µM; in assay [3], 37.9 µM; in assay [4], 58.6 µM; in assay [5], more than 100 µM; in [6] it was more than 100 µM. For the same compound, the TGI in assay [7] amounted to 37.9 µM; in assay [8], 41.8 µM; in assay [9], 44.6 µM.
For the compound `OCc1ccc(N2CCc3ccccc3C2)cc1Cl`, the GI50 was less than 0.0155 µM in assay [1]; 27.3 µM in [2]; 13.9 µM in [3]; 20.3 µM in assay [4]; 31 µM in assay [5]; less than 0.015 µM in [10]. The GI50 in assay [7] is 5.13 µM; in [8] it was less than 0.0292 µM; in assay [9], 23 µM. For the same compound, the TGI is less than 0.0281 µM in assay [1]; 99.6 µM in assay [2]; 44 µM in assay [3]; 56.6 µM in [4]; more than 100 µM in assay [5]; 0.0355 µM in assay [10]. In addition, the figures for the TGI in [7], in [8] and in [9] were 39.8 µM, more than 44.5 µM and more than 82.9 µM, respectively.
For the compound `COc1cc(-c2c(C#N)c(N)nc(N3CCOCC3)c2C#N)cc(OC)c1OC`, the GI50 in [1] is 92.1 µM; in [2], more than 100 µM; in assay [5] it was 89.9 µM; in [10], more than 100 µM; in assay [6], more than 100 µM; in assay [7], more than 100 µM. Further, the GI50 in assay [8] and in assay [9] was more than 100 µM in each case. Besides, the TGI in assay [1], in [2], in assay [5], in assay [10], in assay [6] and in assay [7] was more than 100 µM each time. Also, the TGI in [8] and in assay [9] was more than 100 µM each time.
On to `COc1cc(/C=C/C(=O)N2CCN(C(=O)c3cc(OC)c(OC)c(OC)c3)CC2)ccc1OCCCOc1cc2c(cc1OC)C(=O)N1CCC[C@H]1C=N2`, for which the GI50 is 0.0832 µM in assay [2]; 0.296 µM in assay [3]; 0.175 µM in [4]; 0.362 µM in assay [5]; 0.205 µM in assay [10]; 0.45 µM in assay [6]. In addition, the GI50 in assay [7] is 11.4 µM; in assay [8], 0.227 µM; in assay [9], 0.212 µM. Moreover, the TGI is more than 100 µM in assay [2]; 0.974 µM in assay [3]; 0.319 µM in assay [4]; more than 40.3 µM in assay [5]; 0.51 µM in assay [10]; 4.37 µM in [6]. The TGI is more than 95 µM in assay [7], 6.06 µM in assay [8] and 0.417 µM in assay [9].
Take `O=S(=O)(/N=c1/scc(-c2ccccc2)n1-c1ccccc1)c1ccc(N2N=C3c4ccccc4CC3C2c2cccs2)cc1` (centres undefined): the GI50 in assay [2] is 50.3 µM; in [3] it was 68 µM; in [5] it was more than 100 µM; in assay [6], 32.7 µM; in assay [7], more than 100 µM; in [8] it was 31.2 µM. Also, the GI50 in assay [9] is more than 100 µM. The TGI in assay [2] is more than 100 µM; in assay [3], more than 100 µM; in assay [5], more than 100 µM; in assay [6], 75.3 µM; in assay [7], more than 100 µM; in assay [8], more than 100 µM. Further, the TGI in assay [9] was more than 100 µM.
Consider `CC(=O)Oc1ccc(/C(=C(\C)c2ccc(Cl)cc2)c2ccc(OCCN3CCCCC3)cc2)cc1`, for which the GI50 was 2.35 µM in [1]; 2.2 µM in assay [2]; 1.82 µM in [3]; 1.96 µM in [4]; 2.26 µM in assay [5]; 3.62 µM in [10]. In addition, the GI50 was 1.97 µM in assay [7], 1.66 µM in assay [8] and 2.01 µM in [9]. In addition, the TGI worked out at 5.14 µM in assay [1]; 6.67 µM in [2]; 4.43 µM in assay [3]; 3.91 µM in assay [4]; 5.8 µM in [5]; 15.2 µM in [10]. The TGI in [7] was found to be 5.44 µM; in assay [8], 3.27 µM; in [9], 3.89 µM.
As for `CN(Cc1cc(Cl)cc(Cl)c1O)Cc1c(O)ccc2ccccc12`, the TGI in [1] turned out to be 33.9 µM; in [3], 33.5 µM; in assay [4], 28.9 µM; in [5], 37.9 µM; in assay [10], 31 µM; in [6], 31.1 µM. Besides, the TGI in assay [7] amounted to 42.5 µM; in [8], 30.4 µM; in [9] it was 37.3 µM.
On to `O=C(Nc1ccccc1)c1cc(S(=O)(=O)Nc2nc3ccccc3o2)c(SCc2ccccc2)cc1Cl`, for which the GI50 was 17.9 µM in assay [1]; 11.4 µM in [2]; 21.2 µM in assay [3]; 37 µM in assay [5]; 15.2 µM in assay [10]; 13.9 µM in assay [6]. Besides, the GI50 in assay [7] is 26.1 µM; in assay [8] it was 17.8 µM; in [9], 22.7 µM. The TGI in assay [1] is 36.7 µM; in assay [2], 28.5 µM; in assay [3], 44.9 µM; in [5], more than 100 µM; in assay [10] it was 34.6 µM; in assay [6], 28.2 µM. In addition, the results for the TGI in assay [7], in [8] and in [9] were 66.3 µM, 35 µM and 51.9 µM, respectively.
